{"source": "patent US20210212959A1", "about": "“GIP ELEVATION INHIBITOR” (KAO CORPORATION, priority 2018, published 2021)", "system": "blood GIP level", "test": "GIP elevation inhibitory activity of D-mannitol (single dietary test)", "assay_type": "in vivo, mice (C57BL/6J)", "description": "Powdery feeds were prepared by using D-mannitol (manufactured by Kao Corp.) in accordance with the compositions listed in the following table and used as test samples. [table] Powdery feeds (Table 1) were weighed so as to have the same calories in each group and freely fed for 30 minutes to mice (C57BL/6J, CLEA Japan, Inc, male, 10-weeks old, n=10) fasted for 18 hours or more. During this free feeding, 200 mg of the feed was given to the high fat diet (HF) group; whereas, 216 mg of the feed to the D-mannitol group. Note that the calorie of D-mannitol was calculated as 0. Before feeding, and 30, 60 and 120 minutes after feeding a powdery-feed test sample, the mice were anesthetized with isoflurane, blood was sampled from the orbit (heparinized hematocrit micro blood collection tube, manufactured by VITREX) and the blood GIP level was measured. The amount of GIP was measured in accordance with ELISA method (Rat/Mouse GIP (total) ELISA (Millipore)). Each value was shown by mean±standard deviation. Statistically significant difference between the groups was obtained by applying Student's t-test to the HF group (*: p<0.05)."}
{"smiles": "OC[C@@H](O)[C@@H](O)[C@H](O)[C@H](O)CO", "note": "[D-mannitol]", "values": [{"measurement": "inhibitory activity against GIP elevation", "setting": "conclusion of single dietary test in mice", "value": "has an inhibitory activity against GIP elevation"}, {"measurement": "blood GIP concentration value at 30 minutes after intake of the sample", "setting": "mice C57BL/6J male, fasted 18 hours or more, 216 mg high fat powdery feed containing D-mannitol, compared to HF group, Student's t-test p<0.05, FIG. 1A", "value": "significantly low"}, {"measurement": "area under the curve of GIP concentration up to 120 minutes after intake of the sample", "setting": "mice C57BL/6J male, fasted 18 hours or more, 216 mg high fat powdery feed containing D-mannitol, compared to control (HF) group, p<0.05, FIG. 1B", "value": "significantly low"}]}
